Columns and labels:
[1] = mn = molality of the nth substance listed, in mol/kg; conditions: 99.6 kPa, Liquid, Vibrating tube method
[2] = 99.6 kPa, Liquid, Vibrating tube method

[2H]O[2H] [water-d2] + CCN1C(=O)N(C)[C@@H]2[C@H]1N(C)C(=O)N2CC
[1], m2 = 0
Conditions	mass density [kg/m3]
278.15 K	1105.52
288.15 K	1105.78
298.15 K	1104.34
308.15 K	1101.65
318.15 K	1097.87

CCN1C(=O)N(C)[C@@H]2[C@H]1N(C)C(=O)N2CC + O
mass density [kg/m3], [1]
Conditions	m1 = 0.01976	m1 = 0.04272	m1 = 0.06009	m1 = 0.07765	m1 = 0.1094	m1 = 0.136	m1 = 0.155	m1 = 0.1749	m1 = 0.1935
278.15 K	1000.71	1001.58	1002.23	1002.88	1004.07	1005.05	1005.75	1006.48	1007.16
288.15 K	999.821	1000.65	1001.28	1001.91	1003.04	1003.98	1004.64	1005.34	1005.98
298.15 K	997.745	998.551	999.157	999.764	1000.85	1001.76	1002.4	1003.07	1003.68
308.15 K	994.713	995.494	996.08	996.672	997.724	998.597	999.219	999.861	1000.46
318.15 K	990.876	991.636	992.207	992.779	993.803	994.654	995.256	995.879	996.461

CCN1C(=O)N(C)[C@@H]2[C@H]1N(C)C(=O)N2CC + [2H]O[2H]
mass density [kg/m3], [1]
Conditions	m1 = 0.02067	m1 = 0.03855	m1 = 0.06093	m1 = 0.08301	m1 = 0.09921	m1 = 0.1206	m1 = 0.1402	m1 = 0.159	m1 = 0.1743
278.15 K	1105.97	1106.36	1106.84	1107.32	1107.67	1108.14	1108.56	1108.97	1109.3
288.15 K	1106.17	1106.51	1106.94	1107.36	1107.67	1108.07	1108.44	1108.8	1109.08
298.15 K	1104.7	1105	1105.38	1105.75	1106.03	1106.39	1106.71	1107.03	1107.28
308.15 K	1101.97	1102.24	1102.58	1102.91	1103.16	1103.47	1103.76	1104.04	1104.28
318.15 K	1098.15	1098.4	1098.71	1099.01	1099.23	1099.52	1099.78	1100.04	1100.24

[2H]O[2H] [water-d2]
[2]
Conditions	mass density [kg/m3]
278.15 K	1105.52
288.15 K	1105.78
298.15 K	1104.34
308.15 K	1101.65
318.15 K	1097.87

O [water] + CCN1C(=O)N(C)[C@@H]2[C@H]1N(C)C(=O)N2CC
Conditions	mass density [kg/m3]
[1], 278.15 K, m2 = 0	999.964

Reference: the NIST ThermoML archive (doi:10.1016/j.jct.2017.07.034)
